Details in all cases: Neisseria gonorrhoeae
The test system of experiment [1] is N. gonorrhoeae 194. In words: MIC/MBC against N. gonorrhoeae clinical isolate 194. Format: cell-based. The method, then: (§1) Briefly, bacteria were grown overnight on chocolate agar II at 37° C in the presence of 5% CO2. Afterwards, a bacterial suspension equivalent to 1.0 McFarland standard was prepared and diluted in brucella broth supplemented with yeast extract, neopeptone, hematin, pyridoxal, and NAD. Test agents were added in the first row of the 96-well plates and serially diluted along the plates. Plates were then incubated at 37° C in the presence of 5% CO2 for 24 h. […] Plates were then incubated at 37 ° C in the presence of 5% CO2 for 24 h. The MBC was categorized as the lowest concentration that reduced bacterial growth by 99.9% [45, 46, 47].

For experiment [2], the system named is N. gonorrhoeae 166. As to the kind of experiment: MIC/MBC against N. gonorrhoeae clinical isolate 166. The experiment is classed as cell-based. The method, then: as §1
For experiment [3], the system named is N. gonorrhoeae 200. In words: MIC/MBC against N. gonorrhoeae clinical isolate 200. Format: cell-based. As for the experimental part:
as §1

Experiment [4] relates to N. gonorrhoeae 165. In words: MIC/MBC against N. gonorrhoeae clinical isolate 165. The experiment is classed as cell-based. The method, then:
as §1

The subject of experiment [5] is N. gonorrhoeae WHO L. As to the kind of experiment: MIC/MBC against N. gonorrhoeae WHO L reference strain. Format: cell-based. As for the experimental part: as §1
The test system of experiment [6] is N. gonorrhoeae strain 181. In words: MIC by broth microdilution against N. gonorrhoeae strain 181. Format: cell-based, Neisseria gonorrhoeae. The method, then: as §1
For orientation: In broth dilution the organism is exposed to a series of concentrations in liquid medium.

The subject of experiment [7] is N. gonorrhoeae 197. As to the kind of experiment: MIC/MBC against N. gonorrhoeae clinical isolate 197. Format: cell-based. As for the experimental part:
as §1

Where [8] appears, read: N. gonorrhoeae strain 181, read-out: MIC.

SMILES strings stand for the structures. ≈ marks a conversion by molar mass, not a printed value. Like-named read-outs stand apart in the source and are kept apart here.

In the case of `CC[C@H]1OC(=O)[C@H](C)[C@@H](O[C@H]2C[C@@](C)(OC)[C@@H](O)[C@H](C)O2)[C@H](C)[C@@H](O[C@@H]2O[C@H](C)C[C@H](N(C)C)[C@H]2O)[C@](C)(O)C[C@@H](C)CN(C)[C@H](C)[C@@H](O)[C@]1(C)O` [Azithromycin, azithromycin, reference compound], the MBC in experiment [1] amounted to 0.5 µg/mL (≈ 0.668 µM); in experiment [2], 1 µg/mL (≈ 1.34 µM); in experiment [3], 0.5 µg/mL (≈ 0.668 µM); in experiment [4] it was 4 µg/mL (≈ 5.34 µM); in experiment [5] it was 1 µg/mL (≈ 1.34 µM); in experiment [7], 2 µg/mL (≈ 2.67 µM). Besides, the MIC in experiment [1] is 0.25 µg/mL (≈ 0.334 µM); in experiment [2], 0.5 µg/mL (≈ 0.668 µM); in experiment [3] it was 0.5 µg/mL (≈ 0.668 µM); in experiment [4], 1 µg/mL (≈ 1.34 µM); in experiment [5], 0.5 µg/mL (≈ 0.668 µM); in experiment [6] (181), 256 µg/mL (≈ 342 µM). Further, the MIC in experiment [7] was found to be 0.5 µg/mL (≈ 0.668 µM).

In the case of `O=C(Nc1nnc(-c2cccs2)o1)c1ccc(S(=O)(=O)C(F)(F)F)cc1` [Compound 6], in experiment [6] (setting [8]), the MIC was 0.5 µg/mL (≈ 1.24 µM).

With `O=C(Nc1nnc(-c2cccs2)o1)c1ccc(SC(F)(F)F)cc1` [Compound 12], in experiment [6] (setting [8]), the MIC was 0.06 µg/mL (≈ 0.162 µM).

Take `O=C(Nc1nnc(-c2cccs2)o1)c1ccc(S(F)(F)(F)(F)F)cc1` [Compound 13]: in experiment [6] (setting [8]), the MIC was 0.06 µg/mL (≈ 0.151 µM).

A word on the MBC: it is the smallest concentration meeting the test's criterion for killing. A low value points to more potent killing. One may read the MIC as the lowest concentration found to suppress growth.

(Values after paper PMC7957578, “N-(1,3,4-Oxadiazol-2-yl)Benzamides as Antibacterial Agents against Neisseria gonorrhoeae” (International Journal of Molecular Sciences, 2021).)
